In patent US11084790B2, “Insoluble complex or solvate thereof, pharmaceutical composition and use thereof” (Fruithy Holdings Limited, priority 2017, dated 2021):
Structures can show the parent of a compound that is named as a salt.

How the values were obtained:
[1] = Systemic pharmacokinetic study of a bis(bupivacaine) pamoate suspension after a single subcutaneous injection at three points in a hind limb in SD rats; assay type: in vivo; conditions: male, rat, sc, single subcutaneous injection at three points in left hind limb, 5 mg/kg, bupivacaine in blood
Description: Systemic Pharmacokinetic Study of a bis(bupivacaine) pamoate Suspension After a Single Subcutaneously Injection at Three Points in a Hind Limb in SD Rats
The systemic absorption and exposure of bis(bupivacaine) pamoate in a rat body was further evaluated by performing a systemic pharmacokinetic research on SD rats which were subcutaneously injected with a bis(bupivacaine) pamoate suspension (Formulation Example 3) once at three points in a left hind limb and comparing with a commercial bupivacaine hydrochloride injection. The long-acting sustained release feature of bis(bupivacaine) pamoate was verified by comparing the pharmacokinetic parameters of bis(bupivacaine) pamoate with a commercial formulation.
In the example, 20 healthy SD male rats (Beijing Vital River Laboratory Animal Technology Co., Ltd., 190 to 210 g) were chosen and randomly divided into 2 groups, i.e., a group for Formulation Example 3 and a group for the commercial bupivacaine hydrochloride injection (Wuhu Kangqi Pharmaceutical Co., Ltd.) group, with 10 animals in each group.
About 0.5 mL of venous blood was collected at 30 min, 1 h, 2 h, 6 h, 8 h, 24 h, 48 h, 72 h and 96 h respectively after administration for both groups of laboratory animals for determining the blood drug concentration of bupivacaine.

[2] = Test on the solubility in a simulated body fluid; assay type: physicochemical; conditions: 0.01 M PBS pH 7.4, 37° C.
Experimental: Test on the Solubility in a Simulated Body Fluid
The concentration of the drug dissolved in the PBS buffered solution was determined with an HPLC-a method.

[3] = Test on the solubility in media at different pH; assay type: physicochemical
Experimental: Test on the Solubility in Media at Different pH
About 200 mg of solid powders of Preparation Example 10 and Preparation Example 15 were added in a 500 mL phosphate buffered solution at different pH values (50 mmol/L, pH 5.5, pH 6.5, pH 7.4, and pH 8.0) respectively, placed into a dissolution tester, kept at a constant temperature of 37° C., and paddle stirred at 50 rpm for 72 hours. Appropriate amounts of the suspension were taken out at 15 min, 30 min, 45 min, 1 h, 2 h, 4 h, 6 h, 8 h, 24 h, 32 h, 48 h, and 72 h respectively, and centrifuged immediately (15000 rpm, 5 min). The supernatant was diluted with methanol by a factor of two. The concentration of the drug dissolved in the PB buffer solution was determined with an HPLC-b method.

[4] = phosphate buffer pH 5.5, 37° C., 0.25 h
[5] = phosphate buffer pH 5.5, 37° C., 0.5 h
[6] = phosphate buffer pH 5.5, 37° C., 0.75 h
[7] = phosphate buffer pH 5.5, 37° C., 1 h
[8] = phosphate buffer pH 5.5, 37° C., 2 h
[9] = phosphate buffer pH 5.5, 37° C., 4 h
[10] = phosphate buffer pH 5.5, 37° C., 6 h
[11] = phosphate buffer pH 5.5, 37° C., 8 h
[12] = phosphate buffer pH 5.5, 37° C., 24 h
[13] = phosphate buffer pH 5.5, 37° C., 32 h
[14] = phosphate buffer pH 5.5, 37° C., 48 h
[15] = phosphate buffer pH 5.5, 37° C., 72 h
[16] = phosphate buffer pH 6.5, 37° C., 0.25 h
[17] = phosphate buffer pH 6.5, 37° C., 0.5 h
[18] = phosphate buffer pH 6.5, 37° C., 0.75 h
[19] = phosphate buffer pH 6.5, 37° C., 1 h
[20] = phosphate buffer pH 6.5, 37° C., 2 h
[21] = phosphate buffer pH 6.5, 37° C., 4 h
[22] = phosphate buffer pH 6.5, 37° C., 6 h
[23] = phosphate buffer pH 6.5, 37° C., 8 h
[24] = phosphate buffer pH 6.5, 37° C., 24 h
[25] = phosphate buffer pH 6.5, 37° C., 32 h
[26] = phosphate buffer pH 6.5, 37° C., 48 h
[27] = phosphate buffer pH 6.5, 37° C., 72 h
[28] = phosphate buffer pH 7.4, 37° C., 0.25 h
[29] = phosphate buffer pH 7.4, 37° C., 0.5 h
[30] = phosphate buffer pH 7.4, 37° C., 0.75 h
[31] = phosphate buffer pH 7.4, 37° C., 1 h
[32] = phosphate buffer pH 7.4, 37° C., 2 h
[33] = phosphate buffer pH 7.4, 37° C., 4 h
[34] = phosphate buffer pH 7.4, 37° C., 6 h
[35] = phosphate buffer pH 7.4, 37° C., 8 h
[36] = phosphate buffer pH 7.4, 37° C., 24 h
[37] = phosphate buffer pH 7.4, 37° C., 32 h
[38] = phosphate buffer pH 7.4, 37° C., 48 h
[39] = phosphate buffer pH 7.4, 37° C., 72 h
[40] = phosphate buffer pH 8.0, 37° C., 0.25 h
[41] = phosphate buffer pH 8.0, 37° C., 0.5 h
[42] = phosphate buffer pH 8.0, 37° C., 0.75 h
[43] = phosphate buffer pH 8.0, 37° C., 1 h
[44] = phosphate buffer pH 8.0, 37° C., 2 h
[45] = phosphate buffer pH 8.0, 37° C., 4 h
[46] = phosphate buffer pH 8.0, 37° C., 6 h
[47] = phosphate buffer pH 8.0, 37° C., 8 h
[48] = phosphate buffer pH 8.0, 37° C., 24 h
[49] = phosphate buffer pH 8.0, 37° C., 32 h
[50] = phosphate buffer pH 8.0, 37° C., 48 h
[51] = phosphate buffer pH 8.0, 37° C., 72 h

CCCCN1CCCCC1C(=O)Nc1c(C)cccc1C (centres unmarked) [bupivacaine hydrochloride]
AUC(0-t) [1]: 711 ng·h/mL
Cmax [1]: 330 ng/mL
Tmax [1]: 37.8 min
half-life [1]: 60 min

CCCCN1CCCCC1C(=O)Nc1c(C)cccc1C.O=C(O)c1cc2ccccc2c(Cc2c(O)c(C(=O)O)cc3ccccc23)c1O [Preparation Example 10, mono(bupivacaine) pamoate]
Compound concentration: Bupivacaine ([2]; 5 min): 722 µM
Compound concentration: Pamoic acid ([2]; 5 min): 742.7 µM
Compound concentration: Bupivacaine ([2]; 15 min): 833 µM
Compound concentration: Pamoic acid ([2]; 15 min): 857.9 µM
Compound concentration: Bupivacaine ([2]; 30 min): 885.9 µM
Compound concentration: Pamoic acid ([2]; 30 min): 916.8 µM
Compound concentration: Bupivacaine ([2]; 1 h): 938.7 µM
Compound concentration: Pamoic acid ([2]; 1 h): 981.6 µM
Compound concentration: Bupivacaine ([2]; 2 h): 909.7 µM
Compound concentration: Pamoic acid ([2]; 2 h): 995.7 µM
Compound concentration: Bupivacaine ([2]; 6 h): 83.3 µM
Compound concentration: Pamoic acid ([2]; 6 h): 1867.3 µM
Compound concentration: Bupivacaine ([2]; 24 h): 67 µM
Compound concentration: Pamoic acid ([2]; 24 h): 2560.5 µM
molar ratio of the solubility (bupivacaine to pamoic acid) ([3]; media at pH 5.5, pH 7.4 and pH 8.0, remained for 48 hours or less): around 1.0
time for which the molar ratio of the solubility remained around 1.0 ([3]; medium at pH 6.5, decreased after a longer time): 8 h
Molar concentration of Bupivacaine [3, 4]: 0.047 mmol/L
Molar concentration of Pamoic acid [3, 4]: 0.046 mmol/L
Molar concentration of Bupivacaine [3, 5]: 0.078 mmol/L
Molar concentration of Pamoic acid [3, 5]: 0.076 mmol/L
Molar concentration of Bupivacaine [3, 6]: 0.106 mmol/L
Molar concentration of Pamoic acid [3, 6]: 0.103 mmol/L
Molar concentration of Bupivacaine [3, 7]: 0.136 mmol/L
Molar concentration of Pamoic acid [3, 7]: 0.132 mmol/L
Molar concentration of Bupivacaine [3, 8]: 0.188 mmol/L
Molar concentration of Pamoic acid [3, 8]: 0.182 mmol/L
Molar concentration of Bupivacaine [3, 9]: 0.222 mmol/L
Molar concentration of Pamoic acid [3, 9]: 0.218 mmol/L
Molar concentration of Bupivacaine [3, 10]: 0.234 mmol/L
Molar concentration of Pamoic acid [3, 10]: 0.232 mmol/L
Molar concentration of Bupivacaine [3, 11]: 0.234 mmol/L
Molar concentration of Pamoic acid [3, 11]: 0.23 mmol/L
Molar concentration of Bupivacaine [3, 12]: 0.246 mmol/L
Molar concentration of Pamoic acid [3, 12]: 0.244 mmol/L
Molar concentration of Bupivacaine [3, 13]: 0.248 mmol/L
Molar concentration of Pamoic acid [3, 13]: 0.248 mmol/L
Molar concentration of Bupivacaine [3, 14]: 0.198 mmol/L
Molar concentration of Pamoic acid [3, 14]: 0.236 mmol/L
Molar concentration of Bupivacaine [3, 15]: 0.142 mmol/L
Molar concentration of Pamoic acid [3, 15]: 0.224 mmol/L
Molar concentration of Bupivacaine [3, 16]: 0.05 mmol/L
Molar concentration of Pamoic acid [3, 16]: 0.053 mmol/L
Molar concentration of Bupivacaine [3, 17]: 0.084 mmol/L
Molar concentration of Pamoic acid [3, 17]: 0.09 mmol/L
Molar concentration of Bupivacaine [3, 18]: 0.115 mmol/L
Molar concentration of Pamoic acid [3, 18]: 0.124 mmol/L
Molar concentration of Bupivacaine [3, 19]: 0.148 mmol/L
Molar concentration of Pamoic acid [3, 19]: 0.160 mmol/L
Molar concentration of Bupivacaine [3, 20]: 0.274 mmol/L
Molar concentration of Pamoic acid [3, 20]: 0.296 mmol/L
Molar concentration of Bupivacaine [3, 21]: 0.384 mmol/L
Molar concentration of Pamoic acid [3, 21]: 0.414 mmol/L
Molar concentration of Bupivacaine [3, 22]: 0.396 mmol/L
Molar concentration of Pamoic acid [3, 22]: 0.424 mmol/L
Molar concentration of Bupivacaine [3, 23]: 0.404 mmol/L
Molar concentration of Pamoic acid [3, 23]: 0.448 mmol/L
Molar concentration of Bupivacaine [3, 24]: 0.186 mmol/L
Molar concentration of Pamoic acid [3, 24]: 0.440 mmol/L
Molar concentration of Bupivacaine [3, 25]: 0.15 mmol/L
Molar concentration of Pamoic acid [3, 25]: 0.426 mmol/L
Molar concentration of Bupivacaine [3, 26]: 0.14 mmol/L
Molar concentration of Pamoic acid [3, 26]: 0.428 mmol/L
Molar concentration of Bupivacaine [3, 27]: 0.128 mmol/L
Molar concentration of Pamoic acid [3, 27]: 0.416 mmol/L
Molar concentration of Bupivacaine [3, 28]: 0.0555 mmol/L
Molar concentration of Pamoic acid [3, 28]: 0.0605 mmol/L
Molar concentration of Bupivacaine [3, 29]: 0.095 mmol/L
Molar concentration of Pamoic acid [3, 29]: 0.105 mmol/L
Molar concentration of Bupivacaine [3, 30]: 0.1315 mmol/L
Molar concentration of Pamoic acid [3, 30]: 0.1465 mmol/L
Molar concentration of Bupivacaine [3, 31]: 0.170 mmol/L
Molar concentration of Pamoic acid [3, 31]: 0.190 mmol/L
Molar concentration of Bupivacaine [3, 32]: 0.288 mmol/L
Molar concentration of Pamoic acid [3, 32]: 0.320 mmol/L
Molar concentration of Bupivacaine [3, 33]: 0.386 mmol/L
Molar concentration of Pamoic acid [3, 33]: 0.430 mmol/L
Molar concentration of Bupivacaine [3, 34]: 0.428 mmol/L
Molar concentration of Pamoic acid [3, 34]: 0.476 mmol/L
Molar concentration of Bupivacaine [3, 35]: 0.440 mmol/L
Molar concentration of Pamoic acid [3, 35]: 0.486 mmol/L
Molar concentration of Bupivacaine [3, 36]: 0.426 mmol/L
Molar concentration of Pamoic acid [3, 36]: 0.550 mmol/L
Molar concentration of Bupivacaine [3, 37]: 0.402 mmol/L
Molar concentration of Pamoic acid [3, 37]: 0.592 mmol/L
Molar concentration of Bupivacaine [3, 38]: 0.204 mmol/L
Molar concentration of Pamoic acid [3, 38]: 0.498 mmol/L
Molar concentration of Bupivacaine [3, 39]: 0.166 mmol/L
Molar concentration of Pamoic acid [3, 39]: 0.458 mmol/L
Molar concentration of Bupivacaine [3, 40]: 0.0575 mmol/L
Molar concentration of Pamoic acid [3, 40]: 0.063 mmol/L
Molar concentration of Bupivacaine [3, 41]: 0.099 mmol/L
Molar concentration of Pamoic acid [3, 41]: 0.110 mmol/L
Molar concentration of Bupivacaine [3, 42]: 0.1375 mmol/L
Molar concentration of Pamoic acid [3, 42]: 0.154 mmol/L
Molar concentration of Bupivacaine [3, 43]: 0.178 mmol/L
Molar concentration of Pamoic acid [3, 43]: 0.200 mmol/L
Molar concentration of Bupivacaine [3, 44]: 0.308 mmol/L
Molar concentration of Pamoic acid [3, 44]: 0.344 mmol/L
Molar concentration of Bupivacaine [3, 45]: 0.416 mmol/L
Molar concentration of Pamoic acid [3, 45]: 0.468 mmol/L
Molar concentration of Bupivacaine [3, 46]: 0.494 mmol/L
Molar concentration of Pamoic acid [3, 46]: 0.554 mmol/L
Molar concentration of Bupivacaine [3, 47]: 0.558 mmol/L
Molar concentration of Pamoic acid [3, 47]: 0.624 mmol/L
Molar concentration of Bupivacaine [3, 48]: 0.610 mmol/L
Molar concentration of Pamoic acid [3, 48]: 0.688 mmol/L
Molar concentration of Bupivacaine [3, 49]: 0.622 mmol/L
Molar concentration of Pamoic acid [3, 49]: 0.702 mmol/L
Molar concentration of Bupivacaine [3, 50]: 0.592 mmol/L
Molar concentration of Pamoic acid [3, 50]: 0.694 mmol/L
Molar concentration of Bupivacaine [3, 51]: 0.44 mmol/L
Molar concentration of Pamoic acid [3, 51]: 0.7 mmol/L
